Results reported in ChEMBL document CHEMBL3045396, “Easy Preparation of Methyl 7-epi-Jasmonate and Four Stereoisomers of Methyl Cucurbate, and Assessment of the Stereogenic Effect of Jasmonate on Phytohormonal Activities” (Biosci Biotechnol Biochem, 1999).
Activity calls are given as the source filed them. No cut-off for these calls is given here.

How the values were obtained:
Oryza sativa = assay: Phytohormonal activity against Oryza sativa (rice) seedlings assessed as growth inhibition of second leaf sheath at 1 to 300 uM after 5 days relative to control; format: functional, organism-based
Lepidium sativum = assay: Phytohormonal activity against Lepidium sativum assessed as inhibition of seed germination at 100 to 1000 uM after 2 days relative to control; format: functional, organism-based

Structure (SMILES)	growth inhibition (GI) (Oryza sativa)	inhibition (Lepidium sativum)
CC/C=C\C[C@H]1C(=O)CC[C@@H]1CC(=O)OC (racemic)	Active	Active
CC/C=C\C[C@@H]1[C@@H](CC(=O)OC)CC[C@@H]1O	inactive	inactive
CC/C=C\C[C@H]1[C@@H](CC(=O)O)CC[C@@H]1O	inactive	
CC/C=C\C[C@@H]1C(=O)CC[C@@H]1CC(=O)OC	Active	Active
CC/C=C\C[C@@H]1[C@@H](CC(=O)OC)CC[C@H]1O	inactive	inactive
CC/C=C\C[C@H]1[C@@H](CC(=O)OC)CC[C@@H]1O	Active	Active
CC/C=C\C[C@H]1C(=O)CC[C@@H]1CC(=O)O	Active	
CC/C=C\C[C@H]1[C@@H](CC(=O)OC)CC[C@H]1O	Active	Active
